From patent publication US20250026766A1, “Thiazolopyridyl Amide Derivatives as DNA Polymerase Theta Inhibitors” (BeiGene, Ltd., priority 2022, published 2025)

Target: Pol Theta (1-894) (Homo sapiens (Human), UniProt O75417)
Experiment: Biochemical Pol Theta (1-894) ATPase IC50 assay (ADP-Glo, ssDNA substrate)
Conditions: ADP-Glo assay with ssDNA substrate, room temperature
How it was run: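 His-tagged human Pol Theta 1-894 from Sf9 baculovirus cells, 2× enzyme solution at 12.5 nM, assayed with ssDNA substrate at room temperature in 40 mM Tris pH 7.5, 20 mM MgCl2, 1 mM DTT, 0.01% BSA, 0.05% Tween-20.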

Pol Theta (1-894), sequence (O75417 1-894): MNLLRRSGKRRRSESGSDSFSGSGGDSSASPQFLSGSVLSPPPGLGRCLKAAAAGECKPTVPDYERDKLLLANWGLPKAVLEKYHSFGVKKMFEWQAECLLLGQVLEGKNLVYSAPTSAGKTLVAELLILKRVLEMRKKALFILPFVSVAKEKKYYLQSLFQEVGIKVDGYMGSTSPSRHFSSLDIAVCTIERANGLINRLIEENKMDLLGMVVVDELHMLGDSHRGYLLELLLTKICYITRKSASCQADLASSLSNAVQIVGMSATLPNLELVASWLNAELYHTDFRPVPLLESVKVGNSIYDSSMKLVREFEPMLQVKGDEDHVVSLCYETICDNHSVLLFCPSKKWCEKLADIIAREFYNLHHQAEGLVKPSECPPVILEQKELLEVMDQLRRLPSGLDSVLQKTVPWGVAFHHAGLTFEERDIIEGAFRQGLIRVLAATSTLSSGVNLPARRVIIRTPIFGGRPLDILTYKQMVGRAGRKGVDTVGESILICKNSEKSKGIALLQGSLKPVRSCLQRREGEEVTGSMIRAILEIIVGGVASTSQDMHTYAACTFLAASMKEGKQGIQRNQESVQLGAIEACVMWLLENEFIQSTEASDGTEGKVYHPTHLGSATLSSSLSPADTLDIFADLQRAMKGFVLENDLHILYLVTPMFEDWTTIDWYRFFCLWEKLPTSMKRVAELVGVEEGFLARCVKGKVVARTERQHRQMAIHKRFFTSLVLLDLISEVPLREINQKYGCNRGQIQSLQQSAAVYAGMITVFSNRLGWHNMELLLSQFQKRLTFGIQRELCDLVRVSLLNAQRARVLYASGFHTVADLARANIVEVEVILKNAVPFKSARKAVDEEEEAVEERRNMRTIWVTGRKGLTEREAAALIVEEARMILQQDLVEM

SMILES | IC50 [nM]
COc1ccc(C#N)cc1-c1cc(C)ncc1C(=O)Nc1nc2ccc(-c3ccc(CN4CCCC4=O)cc3C)nc2s1 [Example 174, 4-(5-cyano-2-methoxyphenyl)-6-methyl-N-(5-(2-methyl-4-((2-oxopyrrolidin-1-yl)methyl)phenyl)thiazolo[5,4-b]pyridin-2-yl)nicotinamide] | 11
COc1ccc(S(C)(=O)=O)cc1-c1cc(C)ncc1C(=O)Nc1nc2ccc(-c3ccc(C(N)=O)c(C)c3)nc2s1 [Example 175, N-(5-(4-carbamoyl-3-methylphenyl)thiazolo[5,4-b]pyridin-2-yl)-4-(2-methoxy-5-(methylsulfonyl)phenyl)-6-methylnicotinamide] | 8.4
COc1ccc(C#N)cc1-c1cc(CO)ncc1C(=O)Nc1nc2ccc(-c3ccc(C#N)cc3C)nc2s1 [Example 176, 4-(5-cyano-2-methoxyphenyl)-N-(5-(4-cyano-2-methylphenyl)thiazolo[5,4-b]pyridin-2-yl)-6-(hydroxymethyl)nicotinamide] | 9.1
COc1ccc(C#N)cc1-c1cc(C)ncc1C(=O)Nc1nc2ccc(-c3ccc([C@@H](C)C#N)cc3)nc2s1 [Example 177A, (R)-4-(5-cyano-2-methoxyphenyl)-N-(5-(4-(1-cyanoethyl)phenyl)thiazolo[5,4-b]pyridin-2-yl)-6-methylnicotinamide] | 25
COc1ccc(C#N)cc1-c1cc(C)ncc1C(=O)Nc1nc2ccc(-c3ccc([C@H](C)C#N)cc3)nc2s1 [Example 177B, (S)-4-(5-cyano-2-methoxyphenyl)-N-(5-(4-(1-cyanoethyl)phenyl)thiazolo[5,4-b]pyridin-2-yl)-6-methylnicotinamide] | 13
